# According to patent US9855283B2, “Composition comprising GPCR19 agonist as an active ingredient for preventing or treating allergic dermatitis” (SHAPERON Inc., priority 2013, dated 2018):
# Key:
# [1] = test system: atopic dermatitis lesions on shaved-back of Balb/C mice; experiment: Clinical score of DNCB-induced atopic dermatitis lesions (five items, worst score 15); format: in vivo; conditions: day 15
# Description: (§1) In order to test efficacy of the sodium taurodeoxycholate (HY2191) composition on atopic dermatitis, dermatitis lesion was induced at the shaved-back of 6 weeks old male Balb/C mice. DNCB (2,4-dinitro-1-chlorobenzene, Sigma) was used as a hapten.
# Five mice for each group were tested. The amount of IgE in blood of mice was measured to evaluate an inhibitory effect of a medication on IgE production. To make skin lesion of atopic dermatitis, 100 μL of a DNCB solution (2.5% in acetone) was applied on the shaved-back of the mouse at day 1. One hundred μL of DNCB (1% in acetone) was applied at day 4 and 100 μL of 0.2% DNCB in acetone at day 10. […]
# In order to evaluate the efficacy of sodium taurodeoxycholate on atopic dermatitis, atopic dermatitis was induced on shaved-back of Balb/C mice with DNCB according to experimental example 1 and clinical scores of atopic dermatitis lesions incurred on the back of animal model was evaluated on day 15. To evaluate clinical scores at day 15, (1) the frequency of scratching for 2 minutes, (2) the severity of erythema/hemorrhage, (3) edema, (4) excoriation/erosion, and (5) scaling/dryness were graded and were scored from 0 (none) to 3 (severe), making the worst score 15 for the most severe subject. The every subject in every group was evaluated by three people in a double-blind method. The mean clinical score of individual mouse was calculated.
# serum IgE = experiment: Serum IgE level by ELISA in DNCB-induced atopic dermatitis mice; format: in vivo, Balb/C mice; conditions: FIG. 3
# Description: as §1
# (§2) Five mice for each group were tested. The amount of IgE in blood of mice was measured to evaluate an inhibitory effect of a medication on IgE production. To make skin lesion of atopic dermatitis, 100 μL of a DNCB solution (2.5% in acetone) was applied on the shaved-back of the mouse at day 1. One hundred μL of DNCB (1% in acetone) was applied at day 4 and 100 μL of 0.2% DNCB in acetone at day 10.
# (§3) From the day 7 to the day 14, 100 μL of the composition of 2.5% or 5% sodium taurodeoxycholate (HY2191) of example 1 was applied on the back of mice twice a day. Maxidex ointment (Dexamethasone, Alcon Korea) and Protopic ointment (Tacrolimus, Astellas Pharma Korea) were used for positive control groups and only a vehicle was used for a negative control group.
# After the clinical evaluation described at Experimental Example 2, a mixture containing 0.4% of Zoletil (Virbac, Milano Italy) and 0.04% of Rompun (Bayer Korea) in normal saline was injected i.p. to anesthetize each mouse. Blood samples were collected from the heart of the mice. The serum was prepared to measure the concentration of IgE using enzyme immunoassay (Mouse IgE ELISA, BD). […]
# IFN-γ = experiment: Serum TH1 cytokine IFN-γ by ELISA in DNCB-induced atopic dermatitis mice; format: in vivo, Balb/C mice; conditions: 5% composition; far better than mice treated with Protopic or Maxidex (p<0.05)
# IL-2 = experiment: Serum TH1 cytokine IL-2 by ELISA in DNCB-induced atopic dermatitis mice; format: in vivo, Balb/C mice; conditions: 5% composition; far better than mice treated with Protopic or Maxidex (p<0.05)
# IL-4 = experiment: Serum TH2 cytokine IL-4 by ELISA in DNCB-induced atopic dermatitis mice; format: in vivo, Balb/C mice; conditions: 5% composition; better than mice treated with Protopic or Maxidex (p<0.05)
# [2] = test system: dorsal skin of atopic mice; experiment: Histopathology (H&E) of dorsal skin: thickness of epidermis and dermis; format: in vivo, Balb/C mice; conditions: for thickness of the epidermis: DNCB only 320.2±21.6 μm, sham 26.1±1.0 μm; for thickness of dermis: DNCB only 930.2±34.2 μm, sham 384.7±11.4 μm
# Description: In order to test efficacy of the sodium taurodeoxycholate (HY2191) composition on atopic dermatitis, dermatitis lesion was induced at the shaved-back of 6 weeks old male Balb/C mice. DNCB (2,4-dinitro-1-chlorobenzene, Sigma) was used as a hapten. Five mice for each group were tested. The amount of IgE in blood of mice was measured to evaluate an inhibitory effect of a medication on IgE production. To make skin lesion of atopic dermatitis, 100 μL of a DNCB solution (2.5% in acetone) was applied on the shaved-back of the mouse at day 1. One hundred μL of DNCB (1% in acetone) was applied at day 4 and 100 μL of 0.2% DNCB in acetone at day 10. From the day 7 to the day 14, 100 μL of the composition of 2.5% or 5% sodium taurodeoxycholate (HY2191) of example 1 was applied on the back of mice twice a day. Maxidex ointment (Dexamethasone, Alcon Korea) and Protopic ointment (Tacrolimus, Astellas Pharma Korea) were used for positive control groups and only a vehicle was used for a negative control group. The dorsal skin flaps of the mice were fixed in a 10% formalin solution for 24 hours and then washed with distilled water. The paraffin blocks of the fixed skins were prepared and sectioned (thickness of 7 μm). They were stained with hematoxylin and eosin (H&E) (FIG. 5A). The thickness of epidermis and the dermis of mice treated with DNCB only were 320.2±21.6 μm and 930.2±34.2 μm, respectively. […] The thickness of dermis from the group of atopic mice treated with 2.5% sodium taurodeoxycholate (HY2191), 5% sodium taurodeoxycholate (HY2191), or Protopic were 616.0±21.1 μm, 521.7±18.3 μm, and 572.6±20.2 μm, respectively.
# mast cells = experiment: Mast cells infiltrated into the dermis (toluidine blue); format: in vivo, Balb/C mice; conditions: compared with vehicle-treated group (p<0.05)
# Description: as §1, §2, §3
# (§4) The number of mast cells, eosinophils, and neutrophils infiltrated into the dermis were counted after staining skins with toluidine blue, congo red, or specific esterase (Naphthol AS-D chloroacetate), respectively. […] On the other hand, the number of neutrophils critical for acute inflammation was increased in the group of atopic mice treated with Protopic.
# eosinophils = experiment: Eosinophils infiltrated into the dermis (congo red); format: in vivo, Balb/C mice; conditions: compared with vehicle-treated group (p<0.05)
# Description: as §1, §2, §3, §4
# neutrophils = experiment: Neutrophils infiltrated into the dermis (specific esterase, Naphthol AS-D chloroacetate); format: in vivo, Balb/C mice; conditions: compared with vehicle-treated group
# Description: as §1, §2, §3, §4
structure (smiles),measurement,setting,value
"C[C@H](CCC(=O)NCCS(=O)(=O)O)[C@H]1CC[C@H]2[C@@H]3CC[C@@H]4C[C@H](O)CC[C@]4(C)[C@H]3C[C@H](O)[C@]12C [sodium taurodeoxycholate (HY2191), sodium taurodeoxycholate]",clinical scores,"[1]; 5% composition, compared to positive control group that received Maxidex ointment or Protopic ointment",better clinical scores
same,clinical score,"[1]; compared to negative control group treated with vehicle only, topical twice a day, day 7 to 14",better clinical score
same,inhibiting serum IgE production,serum IgE; 2.5% or 5% composition,effective in inhibiting serum IgE production
same,serum IgE levels,serum IgE; compared with positive control groups (Maxidex ointment or Protopic ointment),significantly lower
same,level of IFN-γ (TH1 cytokine) in serum,IFN-γ,increased significantly
same,level of IL-2 (TH1 cytokine) in serum,IL-2,increased significantly
same,level of IL-4 (TH2 cytokine) in serum,IL-4,decreased significantly
same,thickness of the epidermis,[2]; 2.5% composition,105.3±7.0 μm
same,thickness of dermis,[2]; 2.5% composition,616.0±21.1 μm
same,thickness of the epidermis,[2]; 5% composition,75.0±8.4 μm
same,thickness of dermis,[2]; 5% composition,521.7±18.3 μm
same,number of mast cells in the skin of atopic mice,mast cells,significantly decreased
same,number of eosinophils in the skin of atopic mice,eosinophils,significantly decreased
same,number of neutrophils in the skin of atopic mice,neutrophils,significantly decreased
